The IC50 is the concentration at which inhibition is half-maximal. One may read the pIC50 as the IC50 on a negative log10 scale, so that one unit is a factor of ten.

We go through 2 molecules from patent publication US8921424B2, “Histone deacetylase inhibitors, process for preparation and uses thereof” (Zhejiang Hisun Pharmaceutical Co. Ltd., priority 2007, dated 2014).

pIC50: −log10 of the molar value. Like-named read-outs stand apart in the source and are kept apart here.

One experiment relates to HDACs. The experiment can be described thus: In vitro HDACi assay (BIOMOL fluorescent-based HDAC activity assay). The note with it: for IC50: Table 3, read-out: IC50 (nM) HDACs; for pIC50: Table 4, read-out: HDAC enzyme inhibition activity IC50. Type of experiment: biochemical. The method, then: (§1) In Vitro HDACi Assay for Determination of IC50 Values
(§2) The assay has been carried out in white 96 well formats according to the BIOMOL's method. […] The reaction mixture was incubated at room temperature for 2 hours. Flur de lys Developer was added and the reaction was incubated for 10 min. Briefly, deacetylation of the substrate sensitizes to the developer, which then generates a fluorophore. The fluorophore is excited with 360 nm light and the emitted light (460 nm) is detected on a fluorometric plate reader (Molecular Device Ultra Microplate detection system, MD Group Ltd).
(§3) The analytical software, Prism 4.0 (GraphPad Software Inc) has been used to generate IC50 from a series of data.

The target of the next experiment is HDAC6 (Homo sapiens (Human), UniProt Q9UBN7). Description: In vitro HDACi assay, HDAC6. Type of experiment: biochemical. The method, then:
as §1, §2, §3

HDAC6, sequence (Q9UBN7 whole entry, species assumed): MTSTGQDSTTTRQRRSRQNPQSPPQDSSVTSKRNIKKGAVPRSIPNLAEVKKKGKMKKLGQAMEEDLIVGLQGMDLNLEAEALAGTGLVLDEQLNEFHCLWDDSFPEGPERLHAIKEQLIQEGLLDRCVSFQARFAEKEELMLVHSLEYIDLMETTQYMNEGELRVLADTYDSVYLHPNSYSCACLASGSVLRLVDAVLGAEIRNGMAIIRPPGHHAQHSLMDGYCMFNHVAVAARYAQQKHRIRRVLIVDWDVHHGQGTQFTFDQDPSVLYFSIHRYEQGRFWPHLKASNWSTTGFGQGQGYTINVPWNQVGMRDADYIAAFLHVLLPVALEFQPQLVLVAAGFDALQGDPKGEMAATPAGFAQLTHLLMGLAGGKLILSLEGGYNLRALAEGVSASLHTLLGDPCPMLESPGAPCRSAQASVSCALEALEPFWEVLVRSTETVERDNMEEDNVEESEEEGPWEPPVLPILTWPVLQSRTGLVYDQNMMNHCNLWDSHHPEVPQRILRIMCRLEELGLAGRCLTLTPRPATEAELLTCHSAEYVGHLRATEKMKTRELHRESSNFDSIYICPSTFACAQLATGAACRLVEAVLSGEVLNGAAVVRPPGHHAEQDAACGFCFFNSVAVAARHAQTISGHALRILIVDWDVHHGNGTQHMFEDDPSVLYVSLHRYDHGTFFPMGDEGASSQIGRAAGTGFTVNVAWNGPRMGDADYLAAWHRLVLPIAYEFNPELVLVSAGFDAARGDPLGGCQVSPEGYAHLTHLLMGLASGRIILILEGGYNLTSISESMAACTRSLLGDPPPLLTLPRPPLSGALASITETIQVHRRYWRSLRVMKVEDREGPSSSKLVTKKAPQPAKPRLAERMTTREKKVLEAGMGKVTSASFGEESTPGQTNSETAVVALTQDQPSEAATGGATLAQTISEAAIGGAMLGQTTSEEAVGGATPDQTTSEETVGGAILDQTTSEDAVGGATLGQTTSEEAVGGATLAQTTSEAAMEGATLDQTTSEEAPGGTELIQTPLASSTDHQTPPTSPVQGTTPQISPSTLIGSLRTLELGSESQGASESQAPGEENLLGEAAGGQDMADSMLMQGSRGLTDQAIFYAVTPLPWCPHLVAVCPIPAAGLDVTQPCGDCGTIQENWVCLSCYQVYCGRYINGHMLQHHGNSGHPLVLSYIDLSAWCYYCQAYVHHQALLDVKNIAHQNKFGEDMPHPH

As for `CCCCc1nc2cc(/C=C/C(=O)NO)ccc2n1CCN(CC)CC` [SB939, reference compound], in the experiment with HDACs, the IC50 amounted to 18 nM and the pIC50 is 4.74. At HDAC6, this molecule had a pIC50 of 6.31.
On to `CCCCCNc1cc(/C=C/C(=O)NO)ccc1SCCN(CC)CC` [Example 2, 3-(4-(2-(diethylamino)ethylthio)-3-(pentylamino)phenyl)-N-hydroxy-acrylamide], for which, in the experiment on HDACs, the IC50 came out at 21 nM and the pIC50 is 4.68. The IC50 at HDAC6 (Table 3, read-out: IC50 (nM) HDAC6) amounted to 578 nM.
